The CheMixHub viscosity set
Several values for one entry are separate records, joined by “and”; a condition that tells them apart may be missing. Identical values can stand only once.

Test: xn = mol fraction of the nth substance listed

NC1CCCCC1 + CC(C)(C)O
298.15 K, 101 kPa
Settings | viscosity [mPa·s]
x1 = 0.0767 | 4.039
x1 = 0.1574 | 3.722
x1 = 0.2426 | 3.444
x1 = 0.3325 | 3.203
x1 = 0.4277 | 2.974
x1 = 0.5285 | 2.749
x1 = 0.6355 | 2.519
x1 = 0.7493 | 2.309
x1 = 0.8706 | 2.106

[Cl-].[Na+] + O
Settings | viscosity
293.15 K, 101.3 kPa, x1 = 0.02 | 1.079 mPa·s
293.15 K, 101.3 kPa, x1 = 0.03479 | 1.188 mPa·s
295.95 K, 100 kPa, x1 = 0.045 | 1.205 mPa·s
296.05 K, 100 kPa, x1 = 0.006 | 0.95 mPa·s
296.17 K, 100 kPa, x1 = 0.06928 | 1.448 mPa·s
296.24 K, 100 kPa, x1 = 0.06928 | 1.444 mPa·s
296.26 K, 100 kPa, x1 = 0.06928 | 1.444 mPa·s
296.5 K, 100 kPa, x1 = 0.045 | 1.192 mPa·s
296.51 K, 100 kPa, x1 = 0.045 | 1.191 mPa·s
296.65 K, 100 kPa, x1 = 0.008493 | 0.958 mPa·s and 0.96 mPa·s
296.77 K, 100 kPa, x1 = 0.06928 | 1.427 mPa·s
297.15 K, 100 kPa, x1 = 0.01884 | 1.001 mPa·s and 1.002 mPa·s
298.15 K, 100 kPa, x1 = 0.04394 | 1.132 mPa·s
298.15 K, 100 kPa, x1 = 0.05559 | 1.241 mPa·s
298.15 K, 101.3 kPa, x1 = 0.001798 | 0.8994 mPa·s
298.15 K, 101.3 kPa, x1 = 0.005732 | 0.9164 mPa·s
298.15 K, 101.3 kPa, x1 = 0.009 | 0.9256 mPa·s
298.15 K, 101.3 kPa, x1 = 0.01421 | 0.9571 mPa·s
298.15 K, 101.3 kPa, x1 = 0.02 | 0.9683 mPa·s
298.15 K, 101.3 kPa, x1 = 0.02116 | 0.9928 mPa·s
298.15 K, 101.3 kPa, x1 = 0.03479 | 1.071 mPa·s
298.15 K, 101.32 kPa, x1 = 0.09892 | 1.633 mPa·s
298.65 K, 100 kPa, x1 = 0.07389 | 1.412 mPa·s and 1.413 mPa·s and 1.41 mPa·s
300.65 K, 100 kPa, x1 = 0.08874 | 1.525 mPa·s
301.01 K, 100 kPa, x1 = 0.09185 | 1.546 mPa·s
301.02 K, 100 kPa, x1 = 0.09185 | 1.545 mPa·s
301.09 K, 100 kPa, x1 = 0.06928 | 1.299 mPa·s
301.12 K, 100 kPa, x1 = 0.06928 | 1.298 mPa·s
301.15 K, 100 kPa, x1 = 0.008493 | 0.868 mPa·s
301.25 K, 100 kPa, x1 = 0.01884 | 0.9164 mPa·s and 0.9176 mPa·s
301.59 K, 100 kPa, x1 = 0.045 | 1.071 mPa·s
301.67 K, 100 kPa, x1 = 0.045 | 1.067 mPa·s
301.68 K, 100 kPa, x1 = 0.045 | 1.069 mPa·s
301.71 K, 100 kPa, x1 = 0.09185 | 1.521 mPa·s
301.87 K, 100 kPa, x1 = 0.06928 | 1.277 mPa·s
303.15 K, 100 kPa, x1 = 0.02582 | 0.92 mPa·s
303.15 K, 101 kPa, x1 = 0.008924 | 0.8232 mPa·s
303.15 K, 101 kPa, x1 = 0.01768 | 0.8649 mPa·s
303.15 K, 101 kPa, x1 = 0.02626 | 0.911 mPa·s
303.15 K, 101.3 kPa, x1 = 0.001 | 0.807 mPa·s
303.15 K, 101.3 kPa, x1 = 0.009 | 0.8358 mPa·s
303.15 K, 101.3 kPa, x1 = 0.02 | 0.8758 mPa·s
303.15 K, 101.3 kPa, x1 = 0.03479 | 0.9703 mPa·s
303.65 K, 100 kPa, x1 = 0.04394 | 1.016 mPa·s and 1.019 mPa·s
304.15 K, 100 kPa, x1 = 0.05559 | 1.096 mPa·s and 1.095 mPa·s
308.15 K, 100 kPa, x1 = 0.07389 | 1.166 mPa·s
308.15 K, 101.3 kPa, x1 = 0.001798 | 0.7274 mPa·s
308.15 K, 101.3 kPa, x1 = 0.00359 | 0.7334 mPa·s
308.15 K, 101.3 kPa, x1 = 0.005732 | 0.7425 mPa·s
308.15 K, 101.3 kPa, x1 = 0.008927 | 0.7567 mPa·s
308.15 K, 101.3 kPa, x1 = 0.01421 | 0.7787 mPa·s
308.15 K, 101.3 kPa, x1 = 0.02116 | 0.81 mPa·s
308.65 K, 100 kPa, x1 = 0.07389 | 1.151 mPa·s and 1.152 mPa·s
308.66 K, 100 kPa, x1 = 0.06928 | 1.115 mPa·s and 1.116 mPa·s
308.68 K, 100 kPa, x1 = 0.06928 | 1.116 mPa·s
308.71 K, 100 kPa, x1 = 0.06928 | 1.113 mPa·s
308.73 K, 100 kPa, x1 = 0.06928 | 1.113 mPa·s
309.04 K, 100 kPa, x1 = 0.045 | 0.9262 mPa·s
309.11 K, 100 kPa, x1 = 0.045 | 0.926 mPa·s
309.26 K, 100 kPa, x1 = 0.045 | 0.9211 mPa·s
313.15 K, 100 kPa, x1 = 0.05559 | 0.926 mPa·s and 0.924 mPa·s
313.15 K, 101 kPa, x1 = 0.008924 | 0.6852 mPa·s
313.15 K, 101 kPa, x1 = 0.01768 | 0.7209 mPa·s
313.15 K, 101 kPa, x1 = 0.02626 | 0.759 mPa·s
313.15 K, 101.3 kPa, x1 = 0.001 | 0.668 mPa·s
313.15 K, 101.3 kPa, x1 = 0.009 | 0.6992 mPa·s
313.15 K, 101.3 kPa, x1 = 0.02 | 0.7327 mPa·s
313.15 K, 101.3 kPa, x1 = 0.03479 | 0.8126 mPa·s
313.15 K, 101.32 kPa, x1 = 0.1014 | 1.281 mPa·s
313.65 K, 100 kPa, x1 = 0.008493 | 0.679 mPa·s
313.65 K, 100 kPa, x1 = 0.02582 | 0.751 mPa·s and 0.75 mPa·s and 0.748 mPa·s
314.15 K, 100 kPa, x1 = 0.04394 | 0.834 mPa·s
317.65 K, 100 kPa, x1 = 0.08874 | 1.092 mPa·s and 1.096 mPa·s
318.15 K, 100 kPa, x1 = 0.07389 | 0.974 mPa·s and 0.97 mPa·s and 0.973 mPa·s
318.15 K, 101.3 kPa, x1 = 0.001798 | 0.6031 mPa·s
318.15 K, 101.3 kPa, x1 = 0.00359 | 0.6082 mPa·s
318.15 K, 101.3 kPa, x1 = 0.005732 | 0.6163 mPa·s
318.15 K, 101.3 kPa, x1 = 0.008927 | 0.6293 mPa·s
318.15 K, 101.3 kPa, x1 = 0.01421 | 0.6488 mPa·s
323.15 K, 101 kPa, x1 = 0.008924 | 0.5852 mPa·s
323.15 K, 101 kPa, x1 = 0.01768 | 0.617 mPa·s
323.15 K, 101 kPa, x1 = 0.02626 | 0.6491 mPa·s
323.15 K, 101.3 kPa, x1 = 0.009 | 0.6002 mPa·s
323.15 K, 101.3 kPa, x1 = 0.02 | 0.6302 mPa·s
323.15 K, 101.3 kPa, x1 = 0.03479 | 0.6611 mPa·s

NC1CCCCC1 + COCCO
308.15 K, 101 kPa
Settings | viscosity [mPa·s]
x2 = 0.1393 | 1.314
x2 = 0.267 | 1.303
x2 = 0.3844 | 1.298
x2 = 0.4927 | 1.29
x2 = 0.593 | 1.294
x2 = 0.6861 | 1.283
x2 = 0.7727 | 1.263
x2 = 0.8536 | 1.254
x2 = 0.9291 | 1.242

ClC=C(Cl)Cl + ClC(Cl)Cl
303.15 K, 101.33 kPa
Settings | viscosity [mPa·s]
x1 = 0.1451 | 0.517
x1 = 0.2431 | 0.521
x1 = 0.3368 | 0.521
x1 = 0.4687 | 0.521
x1 = 0.5793 | 0.519
x1 = 0.6718 | 0.519
x1 = 0.7912 | 0.519
x1 = 0.868 | 0.518
x1 = 0.9526 | 0.518

CC(O)CO (centres undefined) + CCCCCCCO
Settings | viscosity [mPa·s]
303.15 K, 101 kPa, x2 = 0.6097 | 7.655

CCCCC(=O)[O-].CC[NH+](CC)CCO + CCCCn1cc[n+](C)c1.COP(=O)([O-])OC
Settings | viscosity [mPa·s]
298.15 K, 101 kPa, x1 = 0.1018 | 415.5
